Source: PubChem BioAssay (NCI)
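Results reflect a 48-hour exposure of cells in 96-well plates to compound at five concentrations. GI50 = concentration required for 50% inhibition of growth. At the TGI there is no net growth.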

Key:
Experiment in all cases: DTP human tumour cell line panel, 48 h
HCT-116 colon = tested on: HCT-116 colon
ACHN renal = tested on: ACHN renal
KM12 colon = tested on: KM12 colon
SF-295 CNS = tested on: SF-295 CNS
COLO 205 colon = tested on: COLO 205 colon
A498 renal = tested on: A498 renal
HOP-62 NSCLC = tested on: HOP-62 NSCLC
SK-MEL-2 melanoma = tested on: SK-MEL-2 melanoma
LOX IMVI melanoma = tested on: LOX IMVI melanoma
PC-3 prostate = tested on: PC-3 prostate

SMILES	TGI (HCT-116 colon) [µM]	TGI (ACHN renal) [µM]	TGI (KM12 colon) [µM]	TGI (SF-295 CNS) [µM]	TGI (COLO 205 colon) [µM]	TGI (A498 renal) [µM]	TGI (HOP-62 NSCLC) [µM]	TGI (SK-MEL-2 melanoma) [µM]	TGI (LOX IMVI melanoma) [µM]	TGI (PC-3 prostate) [µM]	GI50 (HCT-116 colon) [µM]	GI50 (ACHN renal) [µM]	GI50 (KM12 colon) [µM]	GI50 (SF-295 CNS) [µM]	GI50 (COLO 205 colon) [µM]	GI50 (HOP-62 NSCLC) [µM]	GI50 (PC-3 prostate) [µM]	GI50 (SK-MEL-2 melanoma) [µM]	GI50 (LOX IMVI melanoma) [µM]	GI50 (A498 renal) [µM]
Nn1c(N=Nc2c(O)[nH]c3c(Cl)cc(Cl)cc23)n[nH]c1=S	> 100	> 100	> 100	> 100	> 100	> 100	> 100	> 100	> 100	–	–	–	–	–	–	–	–	–	–	–
Cc1cccc(C(C)(C)C)c1NC(=O)CC1Sc2ccccc2NC1=O (stereo not drawn)	45.1	> 100	> 100	> 100	59.7	> 100	> 100	–	–	–	–	–	–	–	–	–	–	–	–	–
O=[N+]([O-])c1cccc(C2=NOC3C4CCC(C4)C23)c1 (stereo not drawn)	> 100	> 100	> 100	> 100	> 100	> 100	> 100	> 100	–	–	–	–	–	–	–	–	–	–	–	–
O=C1OC(OCC#CCOC2OC(=O)C(Cl)=C2Cl)C(Cl)=C1Cl (stereo not drawn)	21.8	30.5	39.3	60.4	–	–	26.7	32.2	11.1	27.1	–	–	–	–	–	–	–	–	–	–
Cc1cc(OCc2nnc3n2N=C(c2ccc(Cl)cc2Cl)CS3)ccc1Cl	> 100	> 100	> 100	> 100	> 100	–	> 100	> 100	> 100	> 100	53	45.4	53.3	28.4	60.2	> 100	51.3	76.2	36.3	–
COc1ccc2nc(NC(=O)C(=O)C(C#N)c3ccc(Cl)c(Cl)c3)sc2c1 (stereo not drawn)	> 100	> 100	> 100	> 100	> 100	> 100	> 100	> 100	> 100	–	–	–	–	–	–	–	–	–	–	–
Cc1cccc2nc3cccc(C(=O)NCCN(C)C)c3nc12	10.8	5.8	77.3	14.3	3.14	1.35	1.39	2.96	11.6	–	–	–	–	–	–	–	–	–	–	–
COC(=O)C1=C(c2ccc3c(c2)OCO3)OC(c2cc(OC)c(OC)c(OC)c2)C1 (stereo not drawn)	85.4	> 100	–	> 100	3.98	8.04	> 100	–	> 100	–	–	–	–	–	–	–	–	–	–	–
CCOC(=O)C1=C(Nc2ccc(Cl)c(Cl)c2)OC/C1=N\NS(=O)(=O)c1ccc(C)cc1	> 100	–	> 100	> 100	> 100	> 100	> 100	> 100	> 100	–	–	–	–	–	–	–	–	–	–	–
Cc1cc(N(CCC#N)CCC#N)ccc1C=Nc1ccc(C(=O)NN2C(=O)/C(=C/c3ccc(N(CCC#N)CCC#N)cc3)N=C2c2cc([N+](=O)[O-])ccc2Cl)cc1	> 100	> 100	> 100	–	> 100	> 100	> 100	> 100	> 100	–	–	–	–	–	–	–	–	–	–	–
O=C(CC1C(=O)Nc2ccccc2S1=O)Nc1ccc(Cl)cc1 (stereo not drawn)	–	> 100	> 100	> 100	> 100	–	> 100	> 100	> 100	–	–	–	–	–	–	–	–	–	–	–
COc1ccc(Nc2cc(C)nc(N3CCN(c4ccnc5cc(Cl)ccc45)CC3)n2)cc1	3.24	–	31.6	7.68	3.96	7.26	> 100	–	5.96	> 100	1.34	–	1.64	1.28	1.96	3.89	2.21	–	2.39	0.832
CC1(C)OC(=O)C=C([O-])O1.CC1(C)OC(=O)C=C([O-])O1.CC[O-].CC[O-].[Ti+4]	> 100	> 100	> 100	> 100	> 100	–	> 100	> 100	> 100	–	> 100	> 100	> 100	> 100	> 100	> 100	–	> 100	> 100	–
Cc1ccccc1-n1c(C)nc(-c2ccccc2)cc1=O	> 100	> 100	> 100	> 100	> 100	> 100	> 100	> 100	> 100	–	–	–	–	–	–	–	–	–	–	–
O=C1C=CC(CC(=O)c2ccc3ccccc3c2)O1 (stereo not drawn)	32.3	> 100	31.4	> 100	31.9	46.1	36.6	47.5	35.8	–	–	–	–	–	–	–	–	–	–	–
Cc1ccc(NC(=O)C(=O)Cc2cc[n+]([O-])cc2)cc1	> 100	> 100	> 100	> 100	> 100	> 100	> 100	> 100	> 100	–	–	–	–	–	–	–	–	–	–	–
O=C(O)/C=C/C(=O)N1C/C(=C\c2ccccc2)C(=O)/C(=C/c2ccccc2)C1	3.48	20.9	6.07	11.8	24.3	34.5	41.7	17.2	10.5	–	–	–	–	–	–	–	–	–	–	–
N#CC1=C(Cl)NC(Cl)=C(C#N)C1c1c(Cl)cccc1Cl	34.3	> 100	48.6	> 100	32.8	> 100	> 100	> 100	31	–	–	–	–	–	–	–	–	–	–	–
CC12Oc3ccc4ccccc4c3CC1Cc1c(ccc3ccccc13)O2 (stereo not drawn)	> 100	> 100	> 100	> 100	> 100	–	> 100	> 100	> 100	–	–	–	–	–	–	–	–	–	–	–
CC(C)c1cc(OCC(O)CO)cc(C(C)C)c1 (stereo not drawn)	> 100	> 100	> 100	> 100	> 100	> 100	> 100	> 100	> 100	–	–	–	–	–	–	–	–	–	–	–
COC(=O)C1=CC2OC1(C)CCC2=O (stereo not drawn)	> 100	> 100	> 100	> 100	> 100	–	> 100	> 100	> 100	–	–	–	–	–	–	–	–	–	–	–
O=C(Nc1ccc(Cl)c(Cl)c1)OCCN1c2ccccc2Sc2ccccc21	> 10	> 10	> 10	> 10	> 10	–	> 10	–	> 10	> 10	–	–	–	–	–	–	–	–	–	–
